Assay results reported in patent publication US8846684B2 (priority 2011, dated 2014).
Like-named read-outs stand apart in the source and are kept apart here.

System: WEEV replicon
Test: microbe, parasite or virus in culture
Assay type: cell-based, Western equine encephalitis virus
Details: Western equine encephalitis virus; for activity at 2 µM: read-out: Activity (% control LUC) 2 μM; for activity at 10 µM: read-out: Activity (% control LUC) 10 μM
[1] = read-out: 50 μM (% control) Luc
[2] = read-out: Activity (% control LUC) 50 μM

## O=C(c1cc2ccccc2n1Cc1ccc(Cl)cc1)N1CCC2C(=O)N(Cc3ccccc3)CC2C1 (stereo not shown) [CCG 206485, 2-benzyl-5-(1-(4-chlorobenzyl)-1H-indole-2-carbonyl)octahydro-1H-pyrrolo[3,4-c]pyridin-1-one]
  IC50: 17.1 µM
[1]
  activity at 50 µM: 39.4%

## O=C(NCC1COc2cnccc21)C1CCN(C(=O)c2cc3ccccc3n2Cc2ccc(Cl)cc2)CC1 (stereo not shown) [CCG 206581, 1-(1-(4-chlorobenzyl)-1H-indole-2-carbonyl)-N-((2,3-dihydrofuro[2,3-c]pyridin-3-yl)methyl)piperidine-4-carboxamide]
  IC50: 3.58 µM
[1]
  activity at 50 µM: 8.6%

## O=C(NCc1ccccc1)C1CCCN(C(=O)c2cc3ccccc3n2Cc2ccc(Cl)cc2)C1 (stereo not shown) [CCG 205483, N-benzyl-1-(1-(4-chlorobenzyl)-1H-indole-2-carbonyl)piperidine-3-carboxamide]
  IC50: 30.6 µM
[1]
  activity at 50 µM: 44.1%

## Cc1c(C(=O)N2CCC(C(=O)NCc3ccccc3)CC2)n(Cc2ccc(Cl)cc2)c2ccccc12 [CCG 205431, N-benzyl-1-(1-(4-chlorobenzyl)-3-methyl-1H-indole-2-carbonyl)piperidine-4-carboxamide]
  IC50: > 100 µM
[1]
  activity at 50 µM: 48.4%

## CC(CNC(=O)C1CCN(C(=O)c2cc3ccccc3n2Cc2ccc(Cl)cc2)CC1)c1ccncc1 (stereo not shown) [CCG 206580, 1-(1-(4-chlorobenzyl)-1H-indole-2-carbonyl)-N-(2-(pyridin-4-yl)propyl)piperidine-4-carboxamide]
  IC50: 1.66 µM
[1]
  activity at 50 µM: 13.4%

## O=C(c1cc2ccccc2n1Cc1ccc(Cl)cc1)N1CCC(C(=O)N2CCCCC2)CC1 [CCG 203928, (1-(4-chlorobenzyl)-1H-indol-2-yl)(4-(piperidine-1-carbonyl)piperidin-1-yl)methanone]
read-out: Activity IC50 (μM)
  IC50: 8.1 µM
  activity at 2 µM: 95.1%
  activity at 10 µM: 65.4%
[2]
  activity at 50 µM: 3.4%

## O=C(c1cc2ccccc2n1Cc1ccc(Cl)cc1)N1CCC(C(=O)N2CCCC2)CC1 [CCG 102514, (1-(4-chlorobenzyl)-1H-indol-2-yl)(4-(pyrrolidine-1-carbonyl)piperidin-1-yl)methanone]
read-out: Activity IC50 (μM)
  IC50: 23.8 µM
  activity at 2 µM: 83.1%
  activity at 10 µM: 66.4%
[2]
  activity at 50 µM: 10.5%

## COC(=O)c1cccc(NC(=O)C2CCN(C(=O)c3cc4ccccc4n3Cc3ccc(Cl)cc3)CC2)c1 [CCG 204057, Methyl 3-(1-(1-(4-chlorobenzyl)-1H-indole-2-carbonyl)piperidine-4-carboxamido)benzoate]
read-out: Activity IC50 (μM)
  IC50: 35.6 µM
  activity at 2 µM: 87.9%
  activity at 10 µM: 54%
[2]
  activity at 50 µM: 50.9%

## O=C(NCCc1ccccn1)C1CCN(C(=O)c2cc3ccccc3n2Cc2ccc(Cl)cc2)CC1 [CCG 205456, 1-(1-(4-chlorobenzyl)-1H-indole-2-carbonyl)-N-(2-(pyridin-2-yl)ethyl)piperidine-4-carboxamide]
  IC50: 22.4 µM
[1]
  activity at 50 µM: 24.1%

## CN(Cc1ccccc1)CC1CCN(C(=O)c2cc3ccccc3n2Cc2ccc(F)cc2)CC1 [CCG 206503, (4-((benzyl(methyl)amino)methyl)piperidin-1-yl)(1-(4-fluorobenzyl)-1H-indol-2-yl)methanone]
  IC50: 25.1 µM
[1]
  activity at 50 µM: 28.2%

## CN(Cc1ccccc1)C(=O)C1CCN(C(=O)c2cc3ccccc3n2Cc2ccc([N+](=O)[O-])cc2)CC1 [CCG 205484, N-benzyl-N-methyl-1-(1-(4-nitrobenzyl)-1H-indole-2-carbonyl)piperidine-4-carboxamide]
  IC50: 41.9 µM
[1]
  activity at 50 µM: 54%

## O=C(NCc1ccncc1)C1CCN(C(=O)c2cc3ccccc3n2Cc2ccc(Cl)cc2)CC1 [CCG 203929, 1-(1-(4-chlorobenzyl)-1H-indole-2-carbonyl)-N-(pyridin-4-ylmethyl)piperidine-4-carboxamide]
read-out: Activity IC50 (μM)
  IC50: 6.6 µM
  activity at 2 µM: 99.5%
  activity at 10 µM: 51.8%
[2]
  activity at 50 µM: 36.4%

## CN(Cc1ccccc1)C(=O)C1CCN(C(=O)c2cc3ccccc3[nH]2)CC1 [CCG 205400, N-benzyl-1-(1H-indole-2-carbonyl)-N-methylpiperidine-4-carboxamide]
  IC50: 27.7 µM
[1]
  activity at 50 µM: 29.1%

## CN(Cc1ccccc1)C(=O)C1CCN(C(=O)c2cc3ccccc3n2Cc2ccccc2)CC1 [CCG 205404, N-benzyl-1-(1-benzyl-1H-indole-2-carbonyl)-N-methylpiperidine-4-carboxamide]
  IC50: 16.9 µM
[1]
  activity at 50 µM: 20.5%

## COc1ccc(Cn2c(C(=O)N3CCC(C(=O)N(C)Cc4ccccc4)CC3)cc3ccccc32)cc1 [CCG 205477, N-benzyl-1-(1-(4-methoxybenzyl)-1H-indole-2-carbonyl)-N-methylpiperidine-4-carboxamide]
  IC50: 16.5 µM
[1]
  activity at 50 µM: 33.3%

## O=C(c1cc2ccccc2n1Cc1ccc(Cl)cc1)N1CCC(C(=O)N2CCN(Cc3cccnc3)CC2)CC1 [CCG 205430, (1-(4-chlorobenzyl)-1H-indol-2-yl)(4-(4-(pyridin-3-ylmethyl)piperazine-1-carbonyl)piperidin-1-yl)methanone]
  IC50: 13.1 µM
[1]
  activity at 50 µM: 3.55%

## O=C(NCc1ccccc1)C1CCN(C(=O)c2nccn2Cc2ccc(Cl)cc2)CC1 [CCG 206586, N-benzyl-1-(1-(4-chlorobenzyl)-1H-imidazole-2-carbonyl)piperidine-4-carboxamide]
[1]
  activity at 50 µM: 69.5%

## O=C(NCC1CCc2ccccc21)C1CCN(C(=O)c2cc3ccccc3n2Cc2ccc(Cl)cc2)CC1 (stereo not shown) [CCG 206550, 1-(1-(4-chlorobenzyl)-1H-indole-2-carbonyl)-N-((2,3-dihydro-1H-inden-1-yl)methyl)piperidine-4-carboxamide]
  IC50: 7.1 µM
[1]
  activity at 50 µM: 47.4%

## O=C(c1cc2ccccc2n1Cc1ccc(Cl)cc1)N1CCC(C(=O)N2CCCC2c2ccccc2)CC1 (stereo not shown) [CCG 205473, (1-(4-chlorobenzyl)-1H-indol-2-yl)(4-(2-phenylpyrrolidine-1-carbonyl)piperidin-1-yl)methanone]
[1]
  activity at 50 µM: 33.9%

## O=C(NC1Cc2ccccc2C1)C1CCN(C(=O)c2cc3ccccc3n2Cc2ccc(Cl)cc2)CC1 [CCG 205471, 1-(1-(4-chlorobenzyl)-1H-indole-2-carbonyl)-N-(2,3-dihydro-1H-inden-2-yl)piperidine-4-carboxamide]
[1]
  activity at 50 µM: 60.9%

## CC(C)Cn1c(C(=O)N2CCC(C(=O)N(C)Cc3ccccc3)CC2)cc2ccccc21 [CCG 206332, N-benzyl-1-(1-isobutyl-1H-indole-2-carbonyl)-N-methylpiperidine-4-carboxamide]
  IC50: 27.9 µM
[1]
  activity at 50 µM: 1.7%

## CC(C)c1ccc(CCNC(=O)C2CCN(C(=O)c3cc4ccccc4n3Cc3ccc(Cl)cc3)CC2)cc1 [CCG 206461, 1-(1-(4-chlorobenzyl)-1H-indole-2-carbonyl)-N-(4-isopropylphenethyl)piperidine-4-carboxamide]
  IC50: 2.9 µM
[1]
  activity at 50 µM: 32.6%

## O=C(NCc1cccnc1)C1CCN(C(=O)c2cc3ccccc3n2Cc2ccc(Cl)cc2)CC1 [CCG 205422, 1-(1-(4-chlorobenzyl)-1H-indole-2-carbonyl)-N-(pyridin-3-ylmethyl)piperidine-4-carboxamide]
  IC50: 11.4 µM
[1]
  activity at 50 µM: 7.05%

## CC(NC(=O)C1CCN(C(=O)c2cc3ccccc3n2Cc2ccc(Cl)cc2)CC1)c1ccncc1 (stereo not shown) [CCG 206329, 1-(1-(4-chlorobenzyl)-1H-indole-2-carbonyl)-N-(1-(pyridin-4-yl)ethyl)piperidine-4-carboxamide]
  IC50: 2.39 µM
[1]
  activity at 50 µM: 12.7%

## CN(C)C(=O)C1CCN(C(=O)c2cc3ccccc3n2Cc2ccc(Cl)cc2)CC1 [CCG 204022, 1-(1-(4-chlorobenzyl)-1H-indole-2-carbonyl)-N,N-dimethylpiperidine-4-carboxamide]
read-out: Activity IC50 (μM)
  IC50: 10.4 µM
  activity at 2 µM: 87.3%
  activity at 10 µM: 51.9%
[2]
  activity at 50 µM: 5.8%

## O=C(c1cc2ccccc2n1Cc1ccc(Cl)cc1)N1CCC(C(=O)N2CCOCC2)CC1 [CCG 204024, (1-(4-chlorobenzyl)-1H-indol-2-yl)(4-(morpholine-4-carbonyl)piperidin-1-yl)methanone]
read-out: Activity IC50 (μM)
  IC50: 12.3 µM
  activity at 2 µM: 74.9%
  activity at 10 µM: 47.4%
[2]
  activity at 50 µM: 8.3%

## CC(NC(=O)C1CCN(C(=O)c2cc3ccccc3n2Cc2ccc(Cl)cc2)CC1)C1Cc2ccccc2C1 (stereo not shown) [CCG 206549, 1-(1-(4-chlorobenzyl)-1H-indole-2-carbonyl)-N-(1-(2,3-dihydro-1H-inden-2-yl)ethyl)piperidine-4-carboxamide]
  IC50: 1.7 µM
[1]
  activity at 50 µM: 36.9%

## C#CCn1c(C(=O)N2CCC(C(=O)N(C)Cc3ccccc3)CC2)cc2ccccc21 [CCG 206401, N-benzyl-N-methyl-1-(1-(prop-2-yn-1-yl)-1H-indole-2-carbonyl)piperidine-4-carboxamide]
[1]
  activity at 50 µM: 57.4%

## C[C@@H](NCC1CCN(C(=O)c2cc3ccccc3n2Cc2ccc(F)cc2)CC1)c1ccccc1 [CCG 206499, (R)-(1-(4-fluorobenzyl)-1H-indol-2-yl)(4-(((1-phenylethyl)amino)methyl)piperidin-1-yl)methanone]
[1]
  activity at 50 µM: 0%

## COc1ccc(CCNC(=O)C2CCN(C(=O)c3cc4ccccc4n3Cc3ccc(Cl)cc3)CC2)cc1 [CCG 206398, 1-(1-(4-chlorobenzyl)-1H-indole-2-carbonyl)-N-(4-methoxyphenethyl)piperidine-4-carboxamide]
  IC50: 7.1 µM
[1]
  activity at 50 µM: 12.9%

## O=C(c1cc2ccccc2n1Cc1ccc(F)cc1)N1CCC(CNCc2ccccc2)CC1 [CCG 206500, (4-((benzylamino)methyl)piperidin-1-yl)(1-(4-fluorobenzyl)-1H-indol-2-yl)methanone]
  IC50: 6.5 µM
[1]
  activity at 50 µM: 0%

## COc1cccc(CCNC(=O)C2CCN(C(=O)c3cc4ccccc4n3Cc3ccc(Cl)cc3)CC2)c1 [CCG 206395, 1-(1-(4-chlorobenzyl)-1H-indole-2-carbonyl)-N-(3-methoxyphenethyl)piperidine-4-carboxamide]
  IC50: 11.7 µM
[1]
  activity at 50 µM: 38.4%

## Cc1cccc2cc(C(=O)N3CCC(C(=O)NCc4ccccc4)CC3)n(Cc3ccc(Cl)cc3)c12 [CCG 206447, N-benzyl-1-(1-(4-chlorobenzyl)-7-methyl-1H-indole-2-carbonyl)piperidine-4-carboxamide]
  IC50: 60.7 µM
[1]
  activity at 50 µM: 46.8%
